In the supplement of paper PMC10307832:

Legend:
Test in all cases: relative viability (nuclei count vs DMSO), 5 days (fraction); higher = more cells survive
[1] = compound: CC1=CC=C(C=C1)C(=O)CN2C3=C(CCCC3)SC2=N [Pifithrin_alpha] + COc1cc2c(Oc3ccc(NC(=O)C4(C(=O)Nc5ccc(F)cc5)CC4)cc3F)ccnc2cc1OCCCN1CCOCC1 [Foretinib] (partner 0.25 µM)
Outline: (§1)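 Lung cancer cell lines were seeded in 1536-well plates and dosed by pin tool the next day, with either a single drug or a fixed anchor-drug dose combined with five library-drug doses (not always all listed) spaced in √10 steps. Five days later, one step fixed the cells and stained their nuclei (final 0.05% Triton X-100, 1% formaldehyde, 1 ug/ml Hoechst), and nuclei were counted on 4× images. Relative viability is the nuclei count in treated wells divided by the count in vehicle wells, and each value is the median of duplicate plates.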

Axitinib + Tozasertib = compound: CNC(=O)c1ccccc1Sc1ccc2c(/C=C/c3ccccn3)n[nH]c2c1 [Axitinib] + Cc1cc(Nc2cc(N3CCN(C)CC3)nc(Sc3ccc(NC(=O)C4CC4)cc3)n2)n[nH]1 [Tozasertib] (partner 0.1 µM)
Outline: as §1

[2] = compound: CC1=CC=C(C=C1)C(=O)CN2C3=C(CCCC3)SC2=N [Pifithrin_alpha] + CC(C)C[C@H](NC(=O)[C@H](Cc1ccccc1)NC(=O)c1cnccn1)B(O)O [Bortezomib] (partner 0.002 µM)
Outline: as §1

Bemcentinib + Vorinostat = compound: Nc1nc(Nc2ccc3c(c2)CC[C@@H](N2CCCC2)CC3)nn1-c1cc2c(nn1)-c1ccccc1CCC2 [Bemcentinib] + O=C(CCCCCCC(=O)Nc1ccccc1)NO [Vorinostat] (partner 1 µM)
Outline: as §1

Cell Line	relative viability ([1]; first compound 1 µM)	relative viability ([1]; first compound 3.162 µM)	relative viability ([1]; first compound 10 µM)	relative viability ([1]; first compound 31.62 µM)	relative viability ([1]; first compound 100 µM)	relative viability (Axitinib + Tozasertib; first compound 0.005 µM)	relative viability (Axitinib + Tozasertib; first compound 0.01581 µM)	relative viability (Axitinib + Tozasertib; first compound 0.05 µM)	relative viability (Axitinib + Tozasertib; first compound 0.1581 µM)	relative viability (Axitinib + Tozasertib; first compound 0.5 µM)	relative viability ([2]; first compound 1 µM)	relative viability ([2]; first compound 3.162 µM)	relative viability ([2]; first compound 10 µM)	relative viability ([2]; first compound 31.62 µM)	relative viability ([2]; first compound 100 µM)	relative viability (Bemcentinib + Vorinostat; first compound 0.04 µM)	relative viability (Bemcentinib + Vorinostat; first compound 0.1265 µM)	relative viability (Bemcentinib + Vorinostat; first compound 0.4 µM)	relative viability (Bemcentinib + Vorinostat; first compound 1.265 µM)	relative viability (Bemcentinib + Vorinostat; first compound 4 µM)
201T	0.928	0.745	0.684	0.627	0.681	1	0.896	0.907	0.929	1.19	1.05	1.07	1.16	0.794	0.913	0.962	0.981	1.04	0.938	1.06
A549	1.1	0.958	1.1	0.874	0.959															
A-427	0.877	1.02	1.08	0.863	1.01	0.206	0.193	0.228	0.266	0.22	0.953	0.957	0.916	0.722	0.928	0.841	0.896	0.867	0.836	0.82
ABC-1	1.16	1.11	1.03	0.942	0.724	0.19	0.226	0.14	0.179	0.183	0.322	0.351	0.328	0.26	0.298	1.01	1.1	1.11	0.856	0.892
BEN	0.357	0.736	0.697	0.508	0.625	0.495	0.574	0.582	0.513	0.466	0.47	0.884	0.914	0.728	1.04	0.567	0.627	0.562	0.56	0.6
CAL-12T	0.923	1.18	1.06		0.898	0.417	0.363	0.34	0.365	0.394	0.962	1.09	1.02	0.666	0.809	0.907	1	0.824	0.762	0.831
COR-L23	0.955	0.987	0.97		0.928	0.212	0.205	0.24	0.244	0.278	1.01	0.928	0.973		0.908	0.468	0.47	0.522	0.477	0.521
COR-L 105	1.08	0.976	1.13	0.897	0.734	0.356	0.422	0.331	0.438	0.364	0.725	0.615	0.856	0.629	0.632	0.751	0.985	0.918	0.933	0.826
Calu-6	0.952	0.883	0.76	0.636	0.706						1.07	1.04	0.899	0.569	0.881					
ChaGo-K-1	0.917	0.985	0.871	0.828	0.814	0.217	0.205	0.212	0.237	0.255	0.962	1.21	0.944	0.711	0.986	0.686	0.832	0.823	0.749	0.755
EBC-1	0.0836	0.0947	0.0856	0.0979	0.0988						0.512	0.411	0.437	0.354	0.287					
EKVX	0.744		0.736	0.731	0.636	0.41	0.492	0.358	0.347	0.341	1.07	0.94	0.768	0.607	0.648	0.509	0.815	0.726	0.701	0.79
EMC-BAC-2	0.912	0.932	0.968		0.818	0.301	0.299	0.272	0.391	0.412	1.07	1.09	0.99	0.8	1.15	0.38	0.413	0.537	0.358	0.4
EPLC-272H	0.601	0.66	0.632	0.424	0.695	0.247	0.223	0.204	0.23	0.242		0.944	0.895	0.627	1.11	0.441	0.458	0.459	0.405	0.58
H3255	0.716	0.949	0.827	0.777	0.92	0.721	0.642	0.589	0.541	1.2	0.584	0.76	0.711	0.416	0.421		0.755	0.772	0.784	0.772
HARA		1.08	0.978		0.656	0.125	0.0963	0.0847	0.106	0.123	1.25	1.13	1.2	0.878	1.26	0.402	0.658	0.573	0.645	0.543
HCC-15	1.08	1.05	0.93	0.731	0.789	0.461	0.564	0.435	0.49	0.605	1.1	1.11	0.919	0.772	1.1	0.853	0.953	0.913	0.927	0.879
HCC-44						1.07	1.14	0.702	1.02	1.19	0.916	0.851	0.793	0.68	0.652	1.15	1.2	1.05	1.13	1.08
